Holding throughout (assay type): in vivo
Series [1] concerns mice. Briefly: Aconitine-induced arrhythmia in mice. An excerpt:
Aconitine was used to induce arrhythmia and a saline solution served as the control for a third group.
A dosage in the same range as that previously set forth for cupreidine was utilized with mice for the compounds 6-benzylcinchonine and 6'-allylcinchonine. Aconitine was used to induce arrhythmia and a saline solution was used with the control group.

For series [2], the system named is mice. The series is described as follows: Lethal dose in mice (dose probit curve). As to conditions: result in words. As for the experimental part: (§1) Mice were treated at varying dosage levels for both quinidine and cupreidine. A dose probit curve was generated for the effective dose and lethal dose of each compound. The respective ED50 and LD50 values were derived from those curves using techniques well known to those skilled in the art.

The nature of series [3]: Lethal dose in mice (dose probit curve). As to conditions: mouse, in vivo; mice; from dose probit curve. Here is the method: as §1
For series [4], the system named is mice. Briefly: Antiarrhythmic effective dose in mice (dose probit curve). The note with it: for ED50: Mus musculus. As for the experimental part: as §1
The mark [5] stands for this setting: Table III, dosage in the same range as for cupreidine, saline control 160. ± 5.
Setting [6] is: Table III, dosage in the same range as for cupreidine, saline control 186. ± 6.
[7] abbreviates: Table II, intraperitoneal, cupreidine about 20.6 to about 26.8 mg/kg, quinidine 19.5-25.8 mg/kg, saline control 193. ± 11.

SMILES strings stand for the structures. Entries after “also recorded” stand apart in the source; their conditions may differ. Where two headings read alike, the source gives them in different places.

These results are taken from patent publication US4338320A, “Esters of 6'-hydroxycinchonine, and a method of treating arrythmia with them” (The Board of Regents of the University of Nebraska, priority 1978, dated 1982).

Take `C=CCOc1ccc2nccc([C@H](O)[C@H]3C[C@@H]4CCN3C[C@@H]4C=C)c2c1` [6'-Allylcinchonine, 6'-Allyloxycinchonine]: the “Onset of Arrhythmia (time in seconds)” value in the series on mice [1] (setting [5]) was 215. ± 9 seconds. Besides, the “Onset of Ventricular Tachycardia (time in seconds)” value (from here on “Onset of Ventricular Tachycardia”) in the series on mice [1] (setting [6]) amounted to 261. ± 11 seconds.
The corresponding values for `C=C[C@H]1CN2CC[C@H]1C[C@@H]2[C@@H](O)c1ccnc2ccc(OCc3ccccc3)cc12` [6-Benzylcinchonine, 6'-Benzyloxycinchonine] are 195. ± 8 seconds and 217. ± 6 seconds.
For orientation: LD50 means the dose expected to kill half of the subjects tested. A lower LD50 goes with greater toxicity. Broadly, the ED50 is the midpoint of the dose-response relation. With `C=CC1CN2CCC1CC2C(O)c1ccnc2ccc(O)cc12` (stereo not shown) [Cupreidine, 6'-hydroxycinchonine], the “toxicity relative to quinidine” value with mice [2] is on record as “greatly reduced toxicity”. Besides, in series [3], the 50% lethal dose (LD50) amounted to 304 mg/kg. Besides, the ED50 with mice [4] amounted to 23.5 mg/kg. The “effectiveness as an antiarrhythmic agent, relative to quinidine” value in the series on mice [4] (result in words) is “equal or superior to quinidine; also recorded: comparable to that of quinidine”. Further, the “Onset of Arrhythmia (time in seconds)” value in the series on mice [1] (Table II, intraperitoneal, cupreidine about 20.6 to about 26.8 mg/kg, quinidine 19.5-25.8 mg/kg, saline control 153. ± 5) was 198. ± 8 seconds. In the series with mice [1] (setting [7]), the “Onset of Ventricular Tachycardia” value was determined as 250. ± 22 seconds.
Consider `C=C[C@H]1C[N@@]2CC[C@H]1C[C@@H]2[C@@H](O)c1ccnc2ccc(OC)cc12` [Quinidine, reference compound], for which the LD50 in series [3] came to 202 mg/kg. In addition, the ED50 in the series with mice [4] (mice, from dose probit curve, read-out: ED50) was 22.4 mg/kg. For the same compound, the “Onset of Ventricular Tachycardia” value in the series with mice [1] (setting [7]) is on record as 294. ± 44 seconds.
